# Test results from patent US9826732B2, “Composition for cryopreservation of cells and tissues” (Bio Verde Inc., priority 2008, dated 2017).
# Columns and labels:
# Type in all cases: cell-based
# [1] = system: L929 cells; assay: Toxicity test, MTT assay, 50% cell growth inhibition; conditions: 48 hours culture with polymer
# Method: Toxicity test was performed on L929 cells. The cells having been suspended in a culture medium of DMEM with 10% fetal bovine serum are seeded in 96-well plates (1.0×10^3 cells/well) and cultured at 37° C. for 72 hours. Thereafter, each of ε-poly-L-lysine and the modified poly-lysines having been added with varying concentrations of succinic anhydride was added to the culture media to attain final concentrations of 0-10%.
# [2] = system: L929 cells; assay: Thawed L929 cells seeded directly without dilution or washing, cultured 24 hours; conditions: thawed liquid seeded directly, no dilution nor washing, FIG. 3-1, 3-2
# Method: Meanwhile, the cryopreservation liquid containing the L929 cells was frozen, thawed and directly seeded in 12-well plates and cultured at 37° C. for 24 hours. In detail, the cells were cryopreserved in the 7.5% solution of the PLL succinic anhydride 63% and thawed as in EXAMPLE 2, except that no dilution nor washing was made for the liquid or the cells, and the liquid containing the cells was directly transferred to the plates for culturing.
# [3] = system: CD34-expressing hematopoietic cells; assay: Cryopreservation of umbilical cord blood, CD34 flow cytometry; conditions: human cord blood; −80° C. for three months
# Method: Umbilical cord blood was collected from human umbilical cord by a 7 mL plastic vacuum blood sampling tube (Venoject II, Terumo Corporation) loaded with 10.5 mg anticoagulant (EDTA2Na). […] Then the cord blood was quickly thawed in a water bath at 37° C., and a sample of cord blood without dilution was analyzed with respect to the expression of the surface marker, CD34, by flow cytometry. The number of hematopoietic cells expressing CD34 was measured according to the standard method described in the literature (A. Higuchi et al., J. Biomed. Mater. Res., 68A, the fixed method of 34-42 (2004)). Thus the number of CD34-expressing hematopoietic cells was estimated according to the protocol in the manual (International Hemotherapeutics and Transplantation Society ISHAGE guideline) using Stem-Kit (Beckman-Coulter Corporation). Even after the three months of cryopreservation, number of counted cells of the CD34-expressing hematopoietic cells was estimated to be about 70% of that on the first day when the cord blood was added with the PLL succinic anhydride 63% was added by 7.5%; whereas, when the cord blood in a state of 10% DMSO solution was cryopreserved, number of the CD34-expressing hematopoietic cells was estimated to be about 20% of that on the first day.
# [4] = system: Rat mesenchymal stem cells (RMSC); assay: Cryopreservation of rat mesenchymal stem cells, survival after thawing
smiles,measurement,setting,value
"C[S+](C)[O-] [DMSO, dimethylsulfoxide]",IC50 (50% Cell-growth-inhibition Concentration),[1],2.035 ± 0.017%
same,observation of cells after 24 hours culture,[2],apparently round in shape and dead
same,number of CD34-expressing hematopoietic cells relative to that on the first day,[3],about 20%
same,"survival rate, 6 hours later",[4]; 6 hours after thawing,88.3 ± 1.1
same,"survival rate, 24 hours later",[4]; 24 hours after thawing,92.8 ± 3.5
same,"survival rate, Immediately",[4]; immediately after thawing,92.3 ± 4.3
